From patent publication US20020009509A1, “Soya extract containing lipids, process for its production, and pharmaceutical and cosmetic composition” (priority 1999, published 2002)

Tested on: dry skin
Assay: Skin hydration of dry skin measured as electric capacitance of the horny layer (Corneometer CM 820)
Assay type: in vivo
Settings: 1.5% extract solution or 2% collagen
Experimental: The treatment according to the invention was with an emulsion, in water, containing the extract according to the invention and 2% hydroxyethylcellulose. Skin hydration was measured as electric capacitance of the horny layer using a commercially available device (Corneometer CM 820, Courage+ Kazaka, Cologne, Germany). The mean value of five consecutive measurements was determined and recorded as the measured value. The electric capacitance is expressed by means of an arbitrary scale ranging from 0 to 100 units. Groups of 10 subjects were used.

Substance: collagen
- Hydration (units), After 60 min (60 min after treatment, arbitrary scale 0 to 100 units, groups of 10 subjects, *P < 0.05, **P < 0.001): 57.7 ± 0.1* units
- Hydration, Change % (after 60 min versus starting value): 35.6%
- Hydration (units), Starting value (before treatment, arbitrary scale 0 to 100 units, groups of 10 subjects): 42.7 ± 0.4 units
